Reference: US11078171B2, “Non-ATP/catalytic site p38 mitogen activated protein kinase inhibitors” (University of Maryland, Baltimore, priority 2018, dated 2021)
Where two headings read alike, the source gives them in different places.

What was measured:
[1] = target: T1, p38α (Homo sapiens, UniProt Q16539); experiment: Differential scanning fluorimetry (DSF), binding to p38α
[2] = target: T2, p38β (Homo sapiens, UniProt Q15759); experiment: DSF, binding to p38β
T2 construct: HA (N); made in house; host or cells: E. coli BL21

[3] = target: T1, p38α; experiment: STD-NMR with p38α; format: binding; parameters: made in house; host or cells: E. coli BL21; conditions: 200 μM UM101, 5 μM protein
Method: (§1) Saturation Transfer Difference Nuclear Magnetic Resonance (STD-NMR): A 40 mM stock solution of UM101 was made in d6-DMSO. STD-NMR samples contained 150 mM NaCl, 50 mM phosphate, pH 7,200 μM UM101, and 5 μM p38 protein in D20. Spectra were recorded on an Agilent DD2 500-MHz spectrometer equipped with a 5-mm inverse HFCN probe head at 300 K. During each transient, the protein was saturated with a series of 58 […]-shaped pulses (50 ms, 1 ms delay between pulses) using the vendor-supplied STD-ES pulse sequence, for a total saturation time of 3 seconds. The on-resonance irradiation of protein was done at 0.5 ppm and off-resonance irradiation at 30 ppm. The vendor-supplied WATERGATE pulse sequence was used to suppress the water signal in the STD spectrum. The on-resonance and off-resonance pulse sequences were subtracted internally. A total of 16,384 transients were collected for each STD experiment with a 1 second delay between acquisitions, 6000 Hz spectral width, and 1.3 second acquisition time.
(§2) Selective binding of UM101 to the CADD-targeted pocket in p38α was confirmed using Saturation Transfer Difference (STD)-NMR. The peaks in the 1D spectrum are labeled according to tentative peak assignments of UM101 in aqueous form, based on assignments of UM101 in 2 mM d6-DMSO, which were obtained from the use of 1D proton and C13 and 2D-HMBC experiments. […]

[4] = target: T3, p38α mutant (R49K/HL107-8TF/K165R) (Homo sapiens, UniProt Q16539, H107T/K165R/L108F/R49K); experiment: DSF, binding to p38α mutant with 4 mutations in CADD-targeted pocket; conditions: four of ten target pocket amino acids substituted
T3 construct: made in house; host or cells: E. coli BL21

[5] = system: HMVECLs; experiment: IL-8-directed neutrophil transendothelial migration (TEM) assay; format: cell-based, human
Method: Neutrophil transendothelial migration (TEM) assay: Neutrophils were isolated from heparinized venous blood that was collected from healthy volunteers using a protocol approved by the University of Maryland Institutional Review Board and TEM of calcein-labeled neutrophils through HMVECLs was measured.

[6] = target: T4, mutated p38α (Homo sapiens, UniProt Q16539, H107T/K165R/L108F/R49K); experiment: STD-NMR with mutated p38α; format: binding; conditions: 200 μM UM101, 5 μM protein
T4 construct: made in house; host or cells: E. coli BL21
Method: as §1, §2

[7] = system: Stat-1 phosphorylation in anisomycin-stimulated HeLa cells; experiment: Inhibition of substrate phosphorylation, phospho-Stat-1 immunoblot; format: cell-based, human; conditions: 50 μM, 30 min pretreatment
Method: Inhibition of substrate phosphorylation: A functional analysis of UM101 to block p38-dependent phosphorylation of MK2 and Stat-1 was performed in HeLa cells. […] Cell extracts prepared in RIPA buffer containing protease and phosphatase inhibitors were resolved by SDS-PAGE, transferred to PVDF membrane, blocked with 5% nonfat dry milk, probed with primary antibodies against phosphorylated MK2 and Stat-1, and total p38α as a loading control. Bands were detected using secondary antibodies conjugated to infrared fluorophores and infrared fluorescence imaging (Odyssey; LICOR).

[8] = target: T2, p38β; experiment: STD-NMR with p38β; format: binding; conditions: 200 μM UM101, 5 μM protein
Method: as §1, §2

[9] = system: HMVECLs; experiment: LDH release cytotoxicity assay; format: cell-based, human; conditions: 100 μM for 48 h
Method: (§3) Cytotoxicity of HMVECL exposed to 10-100 μM of each compound is analyzed by MTS assay (Promega), LDH release (Promega), and immunoblotting for activated caspase-3 (Cell Signaling).

[10] = system: HMVECL monolayers; experiment: Endothelial permeability assay (10 kDa dextran flux), TNFα/hyperthermia; format: cell-based, human
Method: Endothelial permeability assay: Permeability of HMVECL monolayers was assessed by measuring transendothelial flux of 10 kDa dextran conjugated to Cascade blue fluorescent dye for 30 min at 37° C. in Matrigel-coated 3 μm pore size Transwell plates.
The capacity of UM60 and UM101 to stabilize endothelial barriers to macromolecules and neutrophils in TNFα- and hyperthermia-stressed HMVECL monolayers was tested (FIG. 2).

[11] = system: HMVECLs; experiment: MTS cytotoxicity assay; format: cell-based, human; conditions: 100 μM for 48 h
Method: as §3
Cytotoxicity assay: Cytotoxicity was monitored in parallel HMVEC-L monolayers established in 96-well culture plates using a colorimetric assay that measured reduction of 3-(4,5-dimethylthiazol-2-yl)-5-(3-carboxymethoxyphenyl)-2-(4-sulfophenyl)-2H-tetrazolium (MTS) to a formazan dye (CellTiter 96™; Promega; Madison, Wis.) according to the manufacturer's protocol and quantifying product formation by measuring absorption at 490 nm.

[12] = system: LPS/hyperthermia-induced ALI in mice

T1 sequence (Q16539 whole entry): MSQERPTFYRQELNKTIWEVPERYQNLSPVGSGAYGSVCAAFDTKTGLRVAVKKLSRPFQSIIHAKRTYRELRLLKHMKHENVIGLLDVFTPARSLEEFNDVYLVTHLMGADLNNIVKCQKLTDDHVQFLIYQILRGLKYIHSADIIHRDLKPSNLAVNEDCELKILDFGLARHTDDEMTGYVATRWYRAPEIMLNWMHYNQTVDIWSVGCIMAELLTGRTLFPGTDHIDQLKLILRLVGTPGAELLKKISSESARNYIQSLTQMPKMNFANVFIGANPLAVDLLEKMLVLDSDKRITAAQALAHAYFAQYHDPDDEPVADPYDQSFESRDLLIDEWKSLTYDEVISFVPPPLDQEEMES
T2 sequence (Q15759 whole entry): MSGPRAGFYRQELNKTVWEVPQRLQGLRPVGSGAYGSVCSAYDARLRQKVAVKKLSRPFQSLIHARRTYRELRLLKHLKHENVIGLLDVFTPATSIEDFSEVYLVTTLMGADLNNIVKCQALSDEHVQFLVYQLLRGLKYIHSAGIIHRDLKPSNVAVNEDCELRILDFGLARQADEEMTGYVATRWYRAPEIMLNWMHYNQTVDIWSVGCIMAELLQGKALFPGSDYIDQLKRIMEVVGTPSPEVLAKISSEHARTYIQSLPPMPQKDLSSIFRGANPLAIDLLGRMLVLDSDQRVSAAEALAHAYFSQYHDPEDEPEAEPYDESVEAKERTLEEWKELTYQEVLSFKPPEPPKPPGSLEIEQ
T4 sequence (Q16539 whole entry R49K/H107T/L108F/K165R): as the sequence (Q16539 whole entry) above, with R49K, H107T, L108F, K165R counted along it
T3 sequence (Q16539 whole entry R49K/H107T/L108F/K165R): as the sequence (Q16539 whole entry) above, with R49K, H107T, L108F, K165R counted along it

O=C(Nc1ccc(CN2CCS(=O)(=O)CC2)cc1)c1ccc(Cl)cc1 [UM101, 4-chloro-N-{4-[(1,1-dioxo-1lambda˜6˜,4-thiazinan-4-yl)methyl]phenyl}benzamide]
stabilization of p38α (DSF) ([1]; 10-100 μM): only stabilized p38α | ΔTm at 100 µM ([1]; read-out: increase of the melting temperature of p38α): ~0.7 °C | stabilization of p38β (DSF) [2]: only stabilized p38α | interaction with p38α (STD-NMR) [3]: protons in both aromatic rings of UM101 interact with p38α | binding to p38α mutant (DSF) [4]: no UM101-binding | reduction of hyperthermia-augmented neutrophil TEM ([5]; 10 μM): 95% | reduction of hyperthermia-augmented neutrophil TEM ([5]; 25 μM): less than baseline levels | reduction of hyperthermia-augmented neutrophil TEM ([5]; 50 μM): less than baseline levels | interaction with mutated p38α (STD-NMR) [6]: much weaker | anisomycin-stimulated phosphorylation of Stat-1 [7]: reduced | interaction with p38β (STD-NMR) [8]: much weaker | toxicity in LDH release assay [9]: Neither compound was toxic | reduction of TNFα/hyperthermia-induced permeability increase ([10]; 10 μM): 74% | reduction of TNFα/hyperthermia-induced permeability increase ([10]; 25 μM): 89% | reduction of TNFα/hyperthermia-induced permeability increase ([10]; 100 μM): > 100% | toxicity in MTS assay [11]: Neither compound was toxic | reduction of lavage neutrophil content vs. DMSO-treated controls ([12]; 100 μg i.p.): 44.4% | reduction of lavage neutrophil content vs. DMSO-treated controls ([12]; 300 μg i.p.): 49.5% | reduction of lavage neutrophil content vs. DMSO-treated controls ([12]; 500 μg i.p.): 55.3% | reduction of lavage neutrophil content vs. DMSO-treated controls ([12]; 1000 μg i.p.): 54% | survival of pretreated mice ([12]; 100, 300, 500 or 1000 μg i.p., 24 h): All sixteen UM101-pretreated mice survived
